Laboratory results taken from US6391329B1, “Insect pest control method” (Earth Chemical Co., Ltd., priority 1994, dated 2002).
Where two headings read alike, the source gives them in different places.

Experiments:
[1] = system: Northern house mosquito (female adult); assay: Insecticidal test in acrylic resin cylinder, air blown through impregnated honeycomb carrier (Example 1); type: in vivo; settings: 500 mg preparation; for number of knockdowns: 26 to 30° C.
Source text: Testing apparatus 1 shown in FIG. 1 comprising acrylic resin cylinder 4 was used. Twenty of northern house mosquitos (female adult) were put in the space partitioned with insect nets 2, and blower 3 was set at the bottom of testing apparatus 1. Preparation-retaining material 5 comprising a honeycomb carrier impregnated with a preparation was fitted in at the lower part of cylinder 4 and above blower 3. Air was blown from the bottom of cylinder 4 and passed through the preparation-retaining material 5 to release the pesticidal component from the preparation, and the insecticidal effect was examined using apparatus 1 for insect control of the present invention.
The number of knockdowns of the mosquitos was counted for every 30 seconds during 10 minutes and 30 seconds following the start of the testing. The mosquitos knocked down were transferred to a clean plastic cup (volume: about 500 ml) containing a cotton wad impregnated with a 1% aqueous sugar solution as feed, and the cup was covered and maintained under constant temperature conditions of about 25° C. […]
The preparation-retaining material used herein was prepared as follows. A honeycomb structure (70×70×15 mm) comprising a laminate of corrugated boards (single-sided) made of bleached kraft paper having a basis weight of 80 g/m^2 (height of the corrugation: about 2 mm) was uniformly impregnated with 3 ml of an acetone solution containing about 500 mg of preparation. The impregnated carrier was set in the apparatus after acetone vaporized.

[2] = Vapor pressure measurement of pyrethroid compounds with the vapor pressure measuring apparatus
[3] = Vapor pressure at 30° C. on the cox diagram; type: physicochemical
Procedure: Compounds which are hard to vaporize at normal temperature can be used in the present invention as a pesticidal component. Those having a vapor pressure […] than 1×10^−7 mmHg at 30° C. and a boiling point of not lower than 120° C./1 mmHg are preferred. It should be noted that the range of vapor pressure as referred to herein is the range at 30° C. on the vapor pressure vs. temperature plot in the cox diagram hereinafter described.
The results of our study have made it possible to suppose or know the vapor pressure at a target temperature by utilizing the cox diagram only if at least one found value is available. The aforesaid problem can thus be solved.
The cox diagram as used herein is the straight line or a group of the straight lines obtained by plotting log P as ordinate and t/(t+C) as abscissa on a graph.

[4] = system: sensitive smokybrown cockroaches (Periplaneta fuliginosa); assay: Cockroach knockdown and mortality in 24 m^3 test room (Example 3); type: in vivo; settings: 1.0 g pesticidal component
Procedure: (§1) The insect pest control apparatus of the present invention was put at the center of the floor of the room, and two cups each containing 20 cockroaches were placed at each of the two opposite corners of the floor. The pesticidal component shown in Table 5 below was released from the apparatus for consecutive 24 hours. As test insects, sensitive German cockroaches (Blatella germanica) and sensitive smokybrown cockroaches (Periplaneta fuliginosa) were used.
(§2) The preparation-retaining material used was prepared by impregnating a honeycomb carrier (70×70×15 mm; FIG. 3) with 1.0 g of the pesticidal component.

[5] = system: sensitive German cockroaches (Blatella germanica); assay: as above; type: in vivo; settings: 1.0 g pesticidal component
Procedure: as §1, §2

[6] = at 30° C.; cited from earlier work

C#CC(OC(=O)C1C(C=C(C)C)C1(C)C)/C(C)=C/CC (mixture of isomers) [empenthrin, 1-ethynyl-2-methyl-2-pentenyl dl-cis/trans-3-(2,2-dimethylvinyl)-2,2-dimethyl-1-cyclopropanecarboxylate]
number of knockdowns ([1]; 0.5 min): 0
number of knockdowns ([1]; 1.0 min): 0
number of knockdowns ([1]; 1.5 min): 1
number of knockdowns ([1]; 2.0 min): 2
number of knockdowns ([1]; 2.5 min): 5
number of knockdowns ([1]; 3.0 min): 10
number of knockdowns ([1]; 3.5 min): 16
number of knockdowns ([1]; 4.0 min): 25
Mortality (%) ([1]; 24 hrs.): 96%
Mortality (%) ([1]; 48 hrs.): 100%
Vapor Pressure ([2]; 20° C.): 5.1 × 10^−4 mmHg
Vapor Pressure ([2]; 25° C.): 9.2 × 10^−4 mmHg
Vapor Pressure ([2]; 30° C.): 1.6 × 10^−3 mmHg
Vapor Pressure ([2]; 35° C.): 2.8 × 10^−3 mmHg
Vapor Pressure ([2]; 40° C.): 4.8 × 10^−3 mmHg
Vapor Pressure at 30° C. [3]: 1.5 × 10^−3 mmHg
Knockdown Ratio (%) ([4]; 1 hr): 0%
Knockdown Ratio (%) ([4]; 2 hrs): 0%
Knockdown Ratio (%) ([4]; 4 hrs): 0%
Knockdown Ratio (%) ([4]; 24 hrs): 65.0%
Mortality at 48 hrs (%) ([4]; 48 hrs): 75.0%
Knockdown Ratio (%) ([5]; 1 hr): 0%
Knockdown Ratio (%) ([5]; 2 hrs): 0%
Knockdown Ratio (%) ([5]; 4 hrs): 0%
Knockdown Ratio (%) ([5]; 24 hrs): 90.0%
Mortality at 48 hrs (%) ([5]; 48 hrs): 90.0%

COP(=O)(OC)OC=C(Cl)Cl [DDVP]
Vapor Pressure [6]: 1×10^−2 mmHg
Vapor Pressure ([2]; 20° C.): 1.2 × 10^−2 mmHg
Vapor Pressure ([2]; 25° C.): 1.9 × 10^−2 mmHg
Vapor Pressure ([2]; 30° C.): 3.0 × 10^−2 mmHg
Vapor Pressure ([2]; 35° C.): 4.6 × 10^−2 mmHg
Vapor Pressure ([2]; 40° C.): 7.1 × 10^−2 mmHg
